Measured values reported in patent US20200323897A1, “METHODS FOR DISTRIBUTING AGENTS TO AREAS OF BRAIN” (Medtronic, Inc., priority 2010, published 2020).

Assays:
[1] = humans, intrathecal, constant rate of 0.5 ml/day; cited from earlier work
[2] = Infusion into the CSF at low flow rates (IT or ICV), overall statements on distribution; format: in vivo, rhesus monkey
Excerpt: (§1) CADD ambulatory infusion pumps were used to deliver gadolinium (Gd) labeled diethylene triamine pentaacetic acid (DTPA) or Gd-labeled albumin to rhesus monkeys, either intrathecally or intracerebroventricularly. Distribution of the Gd-labeled agents was tracked in-life via magnetic resonance imaging (MRI).

[3] = Intrathecal (L2) infusion at low flow rates, distribution tracked by MRI; format: in vivo, rhesus monkey
Experimental: as §1
(§2) For the Gd-DTPA studies, various concentrations of the Gd-DTPA were administered. The Gd-DTPA was administered intrathecally at L2 or intracerebroventricularly via a lateral ventricle at a variety of flow rates. Within a given monkey various flow rates were tested, followed by a washout period with phosphate buffered saline (PBS). An example study design that was used is presented below in Table 2:
While not detectable at lower concentrations, it is believed that the distribution of the lower concentration agent was similar to that observed at the 70 mg/ml concentration at similar flow rates. […] FIG. 6A is an MRI image of the same monkey prior to infusion of Gd-DTPA.
For the Gd-albumin studies, various concentrations of the Gd-albumin were administered intrathecally at L2 at various flow rates. FIGS. 9A-E are MRI images of rhesus monkeys receiving intrathecal Gd-albumin.

[4] = Intracerebroventricular (lateral ventricle) infusion at low flow rates, distribution tracked by MRI; format: in vivo, rhesus monkey; settings: ICV
Experimental: as §1, §2
Referring now to FIGS. 8A-F, MM images of a rhesus monkey receiving various concentrations of Gd-DPTA intracerebroventricularly at various flow rates are shown. FIG. 8A is an MRI image of a monkey receiving PBS prior to infusion of the Gd-DPTA. FIG. 8B is an MM image of a monkey receiving 486 mg/ml at 0.048 ml/day. FIG. 8C is an MRI image of a monkey receiving 280 mg/ml at 0.1 ml/day. FIG. 8D is an MRI image of a monkey receiving 70 mg/ml at 0.4 ml/day. FIG. 8E is an MRI image of a monkey receiving 35 mg/ml at 0.8 ml/day. FIG. 8F is an MM image of a monkey receiving 22 mg/ml at 1.2 ml/day. […] Accordingly, broad distribution appears to be achievable at low flow rates, regardless of the CSF site of administration.
Referring now to FIGS. 11A-F, MRI images of a rhesus monkey receiving various concentrations of Gd-albumin intracerebroventricularly at various flow rates are shown. FIG. 11A is an MM image of a monkey receiving PBS prior to infusion of the Gd-albumin. FIG. 11B is an MM image of a monkey receiving 100 mg/ml at 0.1 ml/day at one day of infusion. FIG. 11C is an MRI image of a monkey receiving 100 mg/ml at 0.4 ml/day at one day of infusion. FIG. 11D is an MRI image of a monkey receiving 100 mg/ml at 0.4 ml/day at three days of infusion. FIG. 11E is an MRI image of a monkey receiving 100 mg/ml at 0.8 ml/day at one day of infusion. FIG. 11F is an MRI image of a monkey receiving 64 mg/ml at 1.2 ml/day at one day of infusion.

Row | Structure (SMILES) | supraspinal side effects [1] | distribution following infusion into the CSF [2] | uptake by brain tissue (FIG. 7B) ([3]; IT L2, 70 mg/ml, 2.4 ml/day) | distribution around the spinal cord (FIG. 7D) ([3]; IT L2, 70 mg/ml, 2.4 ml/day, steady state) | distribution in the CSF (FIG. 6) ([3]; IT L2, all flow rates of about 0.4 ml/day or greater) | distribution in the CSF ([3]; IT, 0.1 mL/day) | distribution in the CSF ([3]; IT, 0.4 mL/day, 70 mg/ml) | detectability by MRI ([3]; IT, 0.4 mL/day, lower concentrations (17.5 mg/ml, 5.8 mg/ml, 2.9 mg/ml)) | MRI signal intensity ([3]; IT, 2.4 ml/day (100 microliters per hour)) | steady state distribution in the CSF ([4]; 0.048 mL/day) | steady state distribution in the CSF ([4]; 0.1 mL/day) | distribution within the CSF ([4]; 0.1 mL/day for a period of 6 hours) | distribution in the CSF (FIG. 8) ([4]; flow rates of about 0.05 ml/day or greater, 22-486 mg/ml)
1 | NCC(CC(=O)O)c1ccc(Cl)cc1 (centres unmarked) [baclofen] | do not appear to suffer from any supraspinal side effects | – | – | – | – | – | – | – | – | – | – | – | –
2 | O=C([O-])CN(CCN(CC(=O)[O-])CC(=O)O)CCN(CC(=O)[O-])CC(=O)O.[Gd+3] [Gd-DTPA, gadolinium (Gd) labeled diethylene triamine pentaacetic acid (DTPA)] | – | broadly distributed | appears to be taken up by the parenchymal tissue of the brain | distributed in a circumferential manner around the intrathecal space | broad distribution was observed | confined the molecule in the IT space | broadly distributed throughout the CSF | not appreciably detectable by MRI | signal was most intense | evident in the CSF compartments in and around the brain, but not the spinal cord | complete CSF coverage | distributed broadly throughout the CSF in and around the brain and spinal cord | broadly distributed in the CSF, including in the intrathecal space
3 | CN1CC[C@]23c4c5ccc(O)c4O[C@H]2[C@@H](O)C=C[C@H]3[C@H]1C5 [morphine] | do not appear to suffer from any supraspinal side effects | – | – | – | – | – | – | – | – | – | – | – | –
